Experimental data as given in PMC10610545, “Preclinical Evaluation of an Imidazole-Linked Heterocycle for Alzheimer’s Disease” (Pharmaceutics, 2023).
Where a name gives a salt, the structure may show the parent alone.

What was measured:
[1] = target: imidazoline I2 receptors (I2-IR); assay: Competition binding against [3H]2-BFI, membranes from post-mortem human frontal cortex; conditions: for [3H]-2-BFI I2 pKi (One Site): monophasic fit; for Selectivity I2/α2: antilog (pKi I2-IR − pKi α2-AR); for [3H]-2-BFI I2 pKi (Two Sites), high affinity (pKiH) / [3H]-2-BFI I2 pKi (Two Sites), low affinity (pKiL): two-site model; for [3H]-2-BFI I2 pKi (Two Sites), high affinity (pKiH): high-affinity site; for [3H]-2-BFI I2 pKi (Two Sites), low affinity (pKiL): low-affinity site
Excerpt: (§1) The inhibition constant (Ki) for each compound was obtained and is expressed as the corresponding pKi. The selectivity for these two receptors was expressed by the I2/α2 index, calculated as the antilogarithm of the […] between pKi values for I2-IR and pKi values for α2-AR.
(§2) Preparation of cellular membranes.
(§3) Human brain samples were obtained at autopsy in the Basque Institute of Legal Medicine, Bilbao, Spain. Samples from the prefrontal cortex (Brodmann’s area 9) were dissected at the time of autopsy and immediately stored at -70 °C until assay. The study was developed in compliance with policies of research and ethical review boards for postmortem brain studies.
(§4) To obtain cellular membranes (P2 fraction) the different samples were homogenized using an ultraturrax in 10 volumes of homogenization buffer (0.25 M sucrose, 5 mM Tris–HCl, pH 7.4).
(§5) The crude homogenate was centrifuged for 5 min at 1000 g (4 °C) and the supernatant was centrifuged again for 10 min at 40,000 g (4 °C). The resultant pellet was washed twice in 5 volumes of homogenization buffer and recentrifuged in similar conditions. Protein content was measured according to the method of Bradford using BSA as standard.
(§6) Competition Binding Assays.
(§7) The pharmacological activity of the compounds was evaluated through competition binding studies against the I2-IR selective radioligand [3H]2-BFI or the α2-adrenergic receptor selective radioligand [3H]RX821002. Specific binding was measured in 0.25 mL aliquots (50 mM Tris-HCl, pH 7.5) containing 100 µg of membranes, which were incubated in 96-well plates either with […]
(§8) Incubations were terminated by separating free ligand from bound ligand by rapid filtration […]
(§9) counted for radioactivity by liquid scintillation spectrometry using a MicroBeta TriLux counter (PerkinElmer). Specific binding was determined and plotted as a function of the compound concentration. Nonspecific binding was determined in the presence of idazoxan (10–5 M), a compound with well stablished affinity for I2-IR and α2-adrenergic receptors, in [3H]2-BFI and [3H]RX821002 assays. To obtain the inhibition constant (Ki) analyses of competition experiments were performed by nonlinear regression using the GraphPad Prism program. Ki values were normalized to pKi values. I2-IR/α2 selectivity index was calculated as the antilogarithm of the difference between pKi values for I2-IR and pKi values for α2-ARs.

[2] = target: α2-adrenergic receptor (α2-AR); assay: Competition binding against [3H]RX821002, membranes from post-mortem human frontal cortex
Excerpt: as §1, §2, §3, §4, §5, §6, §7, §8, §9

[3] = PAMPA-BBB permeation assay; format: in vitro ADME, porcine; conditions: pig, PBS/EtOH (70:30), mean ± SD, read-out: Permeability Pe
Protocol: In vitro Blood-Brain Barrier Permeation Assay
To evaluate the brain penetration of the different compounds, a parallel artificial membrane permeation assay for blood-brain barrier was used, following the method described by Di et al.1 The in vitro permeability (Pe) of fourteen commercial drugs (see Table S1) through lipid extract of porcine brain membrane together with the test compounds were determined. Commercial drugs and assayed compounds were tested using a mixture of PBS:ETOH (70:30). Assay validation was made by comparing the experimental permeability with the reported values of the commercial drugs by bibliography and lineal correlation between experimental and reported permeability of the fourteen commercial drugs using the parallel artificial membrane permeation […]
From this equation and taking into account the limits established by Di et al. for BBB permeation, we established the ranges of permeability […]
predictive penetration in the CNS used as references.
1 Di, L.; Kerns, E. H.; Fan, K.; McConnell, O. J.; and Carter, G. T. High throughput artificial membrane permeability assay for blood-brain barrier.

[3H]-2-BFI I2 pKi (One Site) [1]	[3H]-RX821002 α2 pKi [2]	Papp [3] [×10⁻⁶ cm/s]	Selectivity I2/α2 [1]	Ki ([1]; corresponds to pKiH, read-out: Ki of the high-affinity I2 site) [nM]	[3H]-2-BFI I2 pKi (Two Sites), high affinity (pKiH) [1]	[3H]-2-BFI I2 pKi (Two Sites), low affinity (pKiL) [1]	pKi (exp) I2 ([1]; Table S2, new ligands and known I2-IR ligands)	pKi (exp) α2 ([2]; Table S3, new ligands and known I2-IR ligands)	SMILES
5.49 ± 0.14	5.24 ± 0.26	16.2 ± 0.9	–	–	–	–	–	–	Cl.c1ccc2nc(-n3ccnc3)ccc2c1 [LSL35, 1-(Quinoline-2-yl)-1H-imidazole hydrochloride]
6.10 ± 0.25	3.97 ± 0.25	–	–	–	–	–	–	–	c1ccc2c(c1)OCC(c1ncc[nH]1)O2 (stereo not drawn) [LSL39, 2-(2,3-Dihydrobenzo[1, 4]dioxin-2-yl)-1H-imidazole hydrochloride]
5.24 ± 0.12	5.32 ± 0.24	5.8 ± 0.2	–	–	–	–	–	–	Cl.c1ccc2nc(-c3ncc[nH]3)ccc2c1 [LSL42, 2-(Quinoline-2-yl)-1H-imidazole hydrochloride]

The remaining lines, values behind:

SMILES	[3H]-2-BFI I2 pKi (One Site) [1]	[3H]-RX821002 α2 pKi [2]	Papp [3] [×10⁻⁶ cm/s]	Selectivity I2/α2 [1]	Ki ([1]; corresponds to pKiH, read-out: Ki of the high-affinity I2 site) [nM]	[3H]-2-BFI I2 pKi (Two Sites), high affinity (pKiH) [1]	[3H]-2-BFI I2 pKi (Two Sites), low affinity (pKiL) [1]	pKi (exp) I2 ([1]; Table S2, new ligands and known I2-IR ligands)	pKi (exp) α2 ([2]; Table S3, new ligands and known I2-IR ligands)
c1ccc2oc(C3=NCCN3)cc2c1 [Compound 2-BFI, 2-(2-benzofuranyl)-2-imidazoline]	8.31 ± 0.13	4.58 ± 0.22	–	5370	1	9.08 ± 0.22	7.15 ± 0.31	–	–
c1ccc(-c2ncc3cc(-n4ccnc4)ccc3n2)cc1 [CR4056]	5.95 ± 0.11	–	–	1995	–	–	–	–	–
C(=C\c1ccccc1)/C1=NCCN1 [Tracizoline, reference compound]	–	–	–	–	–	–	–	7.580	4.330
c1ccc2c(c1)OCC(C1=NCCN1)O2 (stereo not drawn) [Idazoxan]	7.41 ± 0.63	7.92 ± 0.07	–	–	–	7.87 ± 0.74	5.76 ± 0.57	–	–
Cl.c1ccc2[nH]c(-n3ccnc3)cc2c1 [LSL29, 2-Imidazol-1-yl-1H-indole hydrochloride]	4.57 ± 0.23	4.99 ± 0.18	10.8 ± 0.4	–	–	8.54 ± 0.71	4.09 ± 0.22	–	–
